Source: publication PMC10728852, “In Vitro and In Vivo Antidiabetic, α-Glucosidase Inhibition and Antibacterial Activities of Three Brown Algae, Polycladia myrica, Padina antillarum, and Sargassum boveanum, and a Red Alga, Palisada perforata from the Persian Gulf” (Iranian Journal of Pharmaceutical Research : IJPR, 2023)

Biological target: T1, yeast's α-glucosidase
T1 construct: gene MAL12; yeast enzyme
Experiment: colorimetric α-glucosidase inhibition assay
Format: biochemical, Saccharomyces cerevisiae
Details: standard drug; substrate and buffer only in supplement
Text: colorimetric α-glucosidase inhibition assay on yeast's α-glucosidase

Q: With `C[C@H]1O[C@H](O[C@H]2[C@H](O)[C@@H](O)[C@@H](O[C@H]3[C@H](O)[C@@H](O)C(O)O[C@@H]3CO)O[C@@H]2CO)[C@H](O)[C@@H](O)[C@@H]1N[C@H]1C=C(CO)[C@@H](O)[C@H](O)[C@H]1O` (stereo partly shown) [Acarbose] as the compound, how does the “Enzyme Inhibition IC50” value read?
A: Its value is 160.15 ± 27.52 µg/mL.
